# Target: T1, PRKX (Homo sapiens, UniProt P51817)
# T1 construct: purchased Thermo Fisher Scientific (Life Technologies) SelectScreen
# Assay: SelectScreen Z'LYTE
# Assay type: biochemical
# Procedure, shortened: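 SelectScreen broad panel; activity (Z'LYTE, Adapta) plus binding formats. ATP: Km app for CSF1R Z'LYTE; 10 for CAMK1 Adapta. Readout = % per kinase.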
# T1 sequence (P51817 whole entry): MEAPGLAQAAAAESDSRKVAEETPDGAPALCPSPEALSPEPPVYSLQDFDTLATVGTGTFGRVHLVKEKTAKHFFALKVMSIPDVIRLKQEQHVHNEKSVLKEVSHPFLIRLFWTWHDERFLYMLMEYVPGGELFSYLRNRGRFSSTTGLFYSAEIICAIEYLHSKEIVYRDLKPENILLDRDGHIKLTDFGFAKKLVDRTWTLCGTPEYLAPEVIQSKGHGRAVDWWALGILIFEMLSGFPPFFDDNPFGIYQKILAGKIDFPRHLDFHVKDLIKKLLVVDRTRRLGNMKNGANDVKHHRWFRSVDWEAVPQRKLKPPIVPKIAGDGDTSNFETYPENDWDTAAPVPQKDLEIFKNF
compound,measurement,value
CN(C(=O)CN1CCOCC1)c1ccc2sc3c(-c4cccc5c(=O)cc(N6CC7CCC(C6)O7)oc45)cccc3c2c1 [NU5455],inhibition at 1 µM,12.5%
